Source: US20210115044A1, “TRICYCLIC HETEROCYCLE COMPOUNDS USEFUL AS HIV INTEGRASE INHIBITORS” (Merck Sharp & Dohme Corp., priority 2018, published 2021)
Where two headings read alike, the source gives them in different places.

Test system: HIV-1 (H9/IIIB strain)
Assay: Multiple round HIV-1 infection assay in MT4-GFP cells (wild type cell assay, Viking)
Format: cell-based
Conditions: MT4-GFP cells infected with HIV-1 H9/IIIB, inhibition of reproductive ratio R0, ~48 h and ~72 h post-infection
Method: The antiviral activity of the Examples herein was assessed in an assay that measures the rate of replication of HIV in cell culture, and performed according to the following procedure. HIV-1 replication was monitored using MT4-gag-GFP clone D3 (hereafter designated MT4-GFP), which are MT-4 cells modified to harbor a GFP reporter gene, the expression of which is dependent on the HIV-1 expressed proteins tat and rev. Productive infection of an MT4-GFP cell with HIV-1 results in GFP expression approximately 24 h post-infection. MT4-GFP cells were maintained at 37° C./5% CO2/90% relative humidity in RPMI 1640 supplemented with 10% fetal bovine serum, 100 U/ml penicillin/streptomycin, and 400 μg/ml G418 to maintain the reporter gene. For infections, MT4-GFP cells were placed in the same medium lacking G418 and infected overnight with HIV-1 (H9/IIIB strain) virus at an approximate multiplicity of infection of 0.01 in the same incubation conditions. Cells were then washed and re-suspended in either RPMI 1640 at 2×10^5 cells/mL (0% NHS condition) or 100% normal human serum (NHS) at 2×10^5 cells/mL (100% NHS condition). Compound plates were prepared by dispensing compounds dissolved in DMSO into wells of 384 well poly-D-lysine-coated plates (0.2 μl/well) using an ECHO acoustic dispenser. Each compound was tested in a 10-point serial 3-fold dilution (typical final concentrations: 1050 nM-0.05 nM for 0% NHS condition or 42 μM-2.13 nM for 100% NHS condition). Controls included no inhibitor (DMSO only) and a combination of three antiviral agents (efavirenz, indinavir, an in-house integrase strand transfer inhibitor at final concentrations of 4 μM each). Cells were added ([…]) to compound plates and the infected cells were maintained at 37° C./5% CO2/90% relative humidity.
Infected cells were quantified at two time points, ˜48 h and ˜72 h post-infection, by counting the number of green cells in each well using an Acumen eX3 scanner. The increase in the number of green cells over ˜24 h period gives the reproductive ratio, R0, which is typically 5-15 and has been shown experimentally to be in logarithmic phase (data not shown). Inhibition of R0 is calculated for each well, and IC50s determined by non-linear 4-parameter curve fitting.

[1] = 0% NHS condition (RPMI 1640), read-out: WILD TYPE CELL ASSAY Viking IP (0% NHS)
[2] = 100% normal human serum condition, read-out: WILD TYPE CELL ASSAY Viking IP (100% NHS)
[3] = Human immunodeficiency virus 1, IIIB, 0% NHS condition (RPMI 1640), read-out: WILD TYPE CELL ASSAY Viking IP (0% NHS)
[4] = Human immunodeficiency virus 1, IIIB, 100% normal human serum condition, read-out: WILD TYPE CELL ASSAY Viking IP (100% NHS)

Compound | IC50 [1] [nM] | IC50 [2] [nM] | IC50 [3] [nM] | IC50 [4] [nM]
CC1C(O)c2c(C(=O)NCc3ccc(F)cc3F)c(=O)c(O)c3n2C1(C)CN(C)C3=O (single isomer, unassigned) [Compound 74] | 1.6 | 38.4 |  | 
CC1C(O)c2c(C(=O)NCc3ccc(F)cc3F)c(=O)c(O)c3n2C1(C)CN(C)C3=O (single isomer, unassigned) [Compound 75] | 2.5 | 172 |  | 
CC1C(O)c2c(C(=O)NCc3ccc(F)cc3F)c(=O)c(O)c3n2C1(C)CN(C)C3=O (single isomer, unassigned) [Compound 76] | 2.5 | 237 |  | 
CC1C(O)c2c(C(=O)NCc3ccc(F)cc3F)c(=O)c(O)c3n2C1(C)CN(C)C3=O (single isomer, unassigned) [Compound 77] | 3.3 | 4470 |  | 
CC1C(O)c2c(C(=O)NCc3ccc(F)cc3F)c(=O)c(O)c3n2C1(C)CN(C)C3=O (single isomer, unassigned) [Compound 78] | 3.2 | 383 |  | 
CC1C(O)c2c(C(=O)NCc3ccc(F)cc3F)c(=O)c(O)c3n2C1(C)CN(C)C3=O (single isomer, unassigned) [Compound 79] | 4.5 | 942 |  | 
CC1C(O)c2c(C(=O)NCc3ccc(F)cc3F)c(=O)c(O)c3n2C1(C)CN(C)C3=O (single isomer, unassigned) [Compound 80] | 2.8 | 192 |  | 
CN1CC2(C)CC(O)c3c(C(=O)NCc4ccc(F)cc4)c(=O)c(O)c(n32)C1=O (stereo not shown) [Compound 23] |  |  | 1.9 | 121
CN1CC2(C)CC(O)c3c(C(=O)NCc4ccc(F)cc4)c(=O)c(O)c(n32)C1=O (stereo not shown) [Compound 24] | 1.2 | 201 |  | 
CN1CC2(C)CC(O)c3c(C(=O)NCc4c(F)cc(F)cc4F)c(=O)c(O)c(n32)C1=O (stereo not shown) [Compound 27] | 2.1 | 29 |  | 
CN1CC2(C)CC(O)c3c(C(=O)NCc4c(F)cc(F)cc4F)c(=O)c(O)c(n32)C1=O (stereo not shown) [Compound 28] | 1 | 129 |  | 
CN1CC2(C)CC(O)c3c(C(=O)NCc4c(F)ccc(Cl)c4F)c(=O)c(O)c(n32)C1=O (stereo not shown) [Compound 31] |  | 268 | 1.7 | 
CN1CC2(C)CC(O)c3c(C(=O)NCc4c(F)ccc(Cl)c4F)c(=O)c(O)c(n32)C1=O (stereo not shown) [Compound 32] | 2.1 | 55.7 |  | 
CN1CC2(C)CC(O)c3c(C(=O)NCc4cccc(Cl)c4F)c(=O)c(O)c(n32)C1=O (stereo not shown) [Compound 35] |  |  | 2.1 | 116
CN1CC2(C)CC(O)c3c(C(=O)NCc4cccc(Cl)c4F)c(=O)c(O)c(n32)C1=O (stereo not shown) [Compound 36] | 2.1 | 59.9 |  | 
CCC12CC(O)c3c(C(=O)NCc4c(F)cc(F)cc4F)c(=O)c(O)c(n31)C(=O)N(C)C2 (stereo not shown) [Compound 47] |  | 1460 | 2.3 | 
CCC12CC(O)c3c(C(=O)NCc4c(F)cc(F)cc4F)c(=O)c(O)c(n31)C(=O)N(C)C2 (stereo not shown) [Compound 48] | 2.1 | 261 |  | 
CCC12CC(O)c3c(C(=O)NCc4c(F)ccc(F)c4F)c(=O)c(O)c(n31)C(=O)N(C)C2 (stereo not shown) [Compound 51] |  | 32.2 | 1.7 | 
CCC12CC(O)c3c(C(=O)NCc4c(F)ccc(F)c4F)c(=O)c(O)c(n31)C(=O)N(C)C2 (stereo not shown) [Compound 52] | 2.7 | 150 |  | 
CCC12CC(O)c3c(C(=O)NCc4c(F)ccc(Cl)c4F)c(=O)c(O)c(n31)C(=O)N(C)C2 (stereo not shown) [Compound 55] |  | 93.6 | 2.2 | 
CCC12CC(O)c3c(C(=O)NCc4c(F)ccc(Cl)c4F)c(=O)c(O)c(n31)C(=O)N(C)C2 (stereo not shown) [Compound 56] | 3.4 | 891 |  | 
CCN1CC2(COC)CC(O)c3c(C(=O)NCc4c(F)cc(F)cc4F)c(=O)c(O)c(n32)C1=O (stereo not shown) [Compound 63] |  | 9300 | 2.9 | 
CCN1CC2(COC)CC(O)c3c(C(=O)NCc4c(F)cc(F)cc4F)c(=O)c(O)c(n32)C1=O (stereo not shown) [Compound 64] | 2.9 | 2740 |  | 
